Data: patent US7618816B2, “Metal-binding therapeutic peptides” (Ontherix, Inc., priority 2005, dated 2009)
Where no end group is shown, it is not given here.

Assays:
54 tumor cell lines = assay: Uptake of SA-HRP::MBD peptide complexes, median of the survey; type: cell-based; conditions: median over tumor cell lines; for SA-HRP uptake, Cyt. (ng), Median: cytoplasmic; for SA-HRP uptake, Nuc. (ng), Median: nuclear
Method: (§1) HEK293 kidney cell line and 54 tumor cell lines obtained from the National Cancer Institute and passaged in RPMI1640 cell culture medium supplemented with 10% fetal bovine serum and 10 uM FeCl2. Uptake of streptavidin-horseradish peroxidase (SA-HRP) conjugate and of various SA-HRP::MBD peptide complexes was determined as described (Singh et al. J Biol Chem. 279 (1):477-87 [2004]) using biotinylated MBD9 ([…]) (SEQ ID NO: 10) and MBD21 ([…]) (SEQ ID NO: 4) peptides and SA-HRP. Nuclear and cytoplasmic localization of these proteins was also determined in each case. […] In order to establish the underlying molecular mechanism for this variability, we cross-linked MBD21 peptide to the following cell surface markers at 4 degrees Celsius as previously described (Singh et al. J Biol Chem. 279 (1):477-87 [2004]): transferrin receptor 1, caveolin 1, PCNA, integrins alpha v, 2, 5 and 6, integrins beta 1, 3 and 5. […] Based on the strength of these correlations, it was possible to derive crude predictive formulae for MBD-mediated uptake based on the rate of cross-linking to surface markers. Such predictive formulas could form the basis for a diagnostic procedure to select appropriate targets for MBD-based therapies.

EKVX = assay: Uptake of SA-HRP::MBD peptide complexes; type: cell-based, human; conditions: for SA-HRP uptake, Cyt.: cytoplasmic; for SA-HRP uptake, Nuc.: nuclear
Method: as §1

OVCAR-3 = assay: Uptake of SA-HRP::MBD peptide complexes; type: cell-based, human; conditions: for SA-HRP uptake, Cyt.: OVCAR-3, cytoplasmic; for SA-HRP uptake, Nuc.: OVCAR-3, nuclear
Method: as §1

NCI-H226 = assay: Uptake of SA-HRP::MBD peptide complexes; type: cell-based, human; conditions: for SA-HRP uptake, Cyt.: NCI-H226, cytoplasmic; for SA-HRP uptake, Nuc.: NCI-H226, nuclear
Method: as §1

Lewis Lung = assay: Uptake of SA-HRP::MBD peptide complexes; type: cell-based, human; conditions: for SA-HRP uptake, Cyt.: cytoplasmic; for SA-HRP uptake, Nuc.: nuclear
Method: as §1

IGR-OV1 = assay: Uptake of SA-HRP::MBD peptide complexes; type: cell-based, human; conditions: for SA-HRP uptake, Cyt.: IGR-OV1, cytoplasmic; for SA-HRP uptake, Nuc.: IGR-OV1, nuclear
Method: as §1

BT-549 = assay: Uptake of SA-HRP::MBD peptide complexes; type: cell-based, human; conditions: for SA-HRP uptake, Cyt.: BT-549, cytoplasmic; for SA-HRP uptake, Nuc.: BT-549, nuclear
Method: as §1

COLO 205 = assay: Uptake of SA-HRP::MBD peptide complexes; type: cell-based, human; conditions: for SA-HRP uptake, Cyt.: COLO 205, cytoplasmic; for SA-HRP uptake, Nuc.: COLO 205, nuclear
Method: as §1

HCT-116 = assay: Uptake of SA-HRP::MBD peptide complexes; type: cell-based, human; conditions: for SA-HRP uptake, Cyt.: HCT-116, cytoplasmic; for SA-HRP uptake, Nuc.: HCT-116, nuclear
Method: as §1

UO-31 = assay: Uptake of SA-HRP::MBD peptide complexes; type: cell-based, human; conditions: for SA-HRP uptake, Cyt.: UO-31, cytoplasmic; for SA-HRP uptake, Nuc.: UO-31, nuclear
Method: as §1

786-O = assay: Uptake of SA-HRP::MBD peptide complexes; type: cell-based, human; conditions: for SA-HRP uptake, Cyt.: cytoplasmic; for SA-HRP uptake, Nuc.: nuclear
Method: as §1

MX-1 = assay: Uptake of SA-HRP::MBD peptide complexes; type: cell-based, human; conditions: for SA-HRP uptake, Cyt.: MX-1, cytoplasmic; for SA-HRP uptake, Nuc.: MX-1, nuclear
Method: as §1

HS 913T = assay: Uptake of SA-HRP::MBD peptide complexes; type: cell-based, human; conditions: for SA-HRP uptake, Cyt.: cytoplasmic; for SA-HRP uptake, Nuc.: nuclear
Method: as §1

A498 = assay: Uptake of SA-HRP::MBD peptide complexes; type: cell-based, human; conditions: for SA-HRP uptake, Cyt.: A498, cytoplasmic; for SA-HRP uptake, Nuc.: A498, nuclear
Method: as §1

HCC 2998 = assay: Uptake of SA-HRP::MBD peptide complexes; type: cell-based, human; conditions: for SA-HRP uptake, Cyt.: HCC 2998, cytoplasmic; for SA-HRP uptake, Nuc.: HCC 2998, nuclear
Method: as §1

SK-0V-3 = assay: Uptake of SA-HRP::MBD peptide complexes; type: cell-based, human; conditions: for SA-HRP uptake, Cyt.: SK-0V-3, cytoplasmic; for SA-HRP uptake, Nuc.: SK-0V-3, nuclear
Method: as §1

A549 = assay: Uptake of SA-HRP::MBD peptide complexes; type: cell-based, human; conditions: for SA-HRP uptake, Cyt.: A549, cytoplasmic; for SA-HRP uptake, Nuc.: A549, nuclear
Method: as §1

OVCAR-5 = assay: Uptake of SA-HRP::MBD peptide complexes; type: cell-based, human; conditions: for SA-HRP uptake, Cyt.: OVCAR-5, cytoplasmic; for SA-HRP uptake, Nuc.: OVCAR-5, nuclear
Method: as §1

MCF 7 = assay: Uptake of SA-HRP::MBD peptide complexes; type: cell-based, human; conditions: for SA-HRP uptake, Cyt.: MCF 7, cytoplasmic; for SA-HRP uptake, Nuc.: MCF 7, nuclear
Method: as §1

NCI-H23 = assay: Uptake of SA-HRP::MBD peptide complexes; type: cell-based, human; conditions: for SA-HRP uptake, Cyt.: NCI-H23, cytoplasmic; for SA-HRP uptake, Nuc.: NCI-H23, nuclear
Method: as §1

RPMI 8226 = assay: Uptake of SA-HRP::MBD peptide complexes; type: cell-based, human; conditions: for SA-HRP uptake, Cyt.: RPMI 8226, cytoplasmic; for SA-HRP uptake, Nuc.: RPMI 8226, nuclear
Method: as §1

SW-620 = assay: Uptake of SA-HRP::MBD peptide complexes; type: cell-based, human; conditions: for SA-HRP uptake, Cyt.: SW-620, cytoplasmic; for SA-HRP uptake, Nuc.: SW-620, nuclear
Method: as §1

NHI-H322M = assay: Uptake of SA-HRP::MBD peptide complexes; type: cell-based, human; conditions: for SA-HRP uptake, Cyt.: cytoplasmic; for SA-HRP uptake, Nuc.: nuclear
Method: as §1

Sequence: KKGFYKKKQCRPSKGRKRGFCWAVDKYG (cysteine pairing not given here; also: biotinylated (position not given here), complexed with SA-HRP) [MBD21]
- SA-HRP uptake, Cyt. (ng), Median (54 tumor cell lines): 2.8 ng
- SA-HRP uptake, Nuc. (ng), Median (54 tumor cell lines): 1.0 ng
- SA-HRP uptake, Cyt. (EKVX): 7.7 ng
- SA-HRP uptake, Nuc. (EKVX): 7.3 ng
- SA-HRP uptake, Cyt. (OVCAR-3): <0.04 ng
- SA-HRP uptake, Nuc. (OVCAR-3): 3.2 ng
- SA-HRP uptake, Cyt. (NCI-H226): 0.7 ng
- SA-HRP uptake, Nuc. (NCI-H226): 0.9 ng
- SA-HRP uptake, Cyt. (Lewis Lung): 6.4 ng
- SA-HRP uptake, Nuc. (Lewis Lung): 3.4 ng
- SA-HRP uptake, Cyt. (IGR-OV1): 1.9 ng
- SA-HRP uptake, Nuc. (IGR-OV1): 1.0 ng
- SA-HRP uptake, Cyt. (BT-549): 4.8 ng
- SA-HRP uptake, Nuc. (BT-549): 3.3 ng
- SA-HRP uptake, Cyt. (COLO 205): 2.1 ng
- SA-HRP uptake, Nuc. (COLO 205): 0.9 ng
- SA-HRP uptake, Cyt. (HCT-116): 12.4 ng
- SA-HRP uptake, Nuc. (HCT-116): 9.5 ng
- SA-HRP uptake, Cyt. (UO-31): 1.3 ng
- SA-HRP uptake, Nuc. (UO-31): 3.3 ng
- SA-HRP uptake, Cyt. (786-O): 1.8 ng
- SA-HRP uptake, Nuc. (786-O): 4.8 ng
- SA-HRP uptake, Cyt. (MX-1): 8.5 ng
- SA-HRP uptake, Nuc. (MX-1): 3.8 ng
- SA-HRP uptake, Cyt. (HS 913T): 2.1 ng
- SA-HRP uptake, Nuc. (HS 913T): 1.8 ng
- SA-HRP uptake, Cyt. (A498): 35.3 ng
- SA-HRP uptake, Nuc. (A498): 33.4 ng
- SA-HRP uptake, Cyt. (HCC 2998): 2.1 ng
- SA-HRP uptake, Nuc. (HCC 2998): 2.4 ng
- SA-HRP uptake, Cyt. (SK-0V-3): <0.04 ng
- SA-HRP uptake, Nuc. (SK-0V-3): <0.04 ng
- SA-HRP uptake, Cyt. (A549): 4.4 ng
- SA-HRP uptake, Nuc. (A549): 1.3 ng
- SA-HRP uptake, Cyt. (OVCAR-5): 1.3 ng
- SA-HRP uptake, Nuc. (OVCAR-5): 1.5 ng
- SA-HRP uptake, Cyt. (MCF 7): 11.1 ng
- SA-HRP uptake, Nuc. (MCF 7): 5.8 ng
- SA-HRP uptake, Cyt. (NCI-H23): 8.0 ng
- SA-HRP uptake, Nuc. (NCI-H23): 8.7 ng
- SA-HRP uptake, Cyt. (RPMI 8226): 3.6 ng
- SA-HRP uptake, Nuc. (RPMI 8226): 0.0 ng
- SA-HRP uptake, Cyt. (SW-620): 6.3 ng
- SA-HRP uptake, Nuc. (SW-620): 2.3 ng
- SA-HRP uptake, Cyt. (NHI-H322M): 6.0 ng
- SA-HRP uptake, Nuc. (NHI-H322M): 8.3 ng

Sequence: KKGFYKKKKQCRPSKGRKRGFCWNGRK [MBD9]
- SA-HRP uptake, Cyt. (ng), Median (54 tumor cell lines): 7.4 ng
- SA-HRP uptake, Nuc. (ng), Median (54 tumor cell lines): 1.8 ng
- SA-HRP uptake, Cyt. (EKVX): 7.2 ng
- SA-HRP uptake, Nuc. (EKVX): 4.2 ng
- SA-HRP uptake, Cyt. (OVCAR-3): 2.4 ng
- SA-HRP uptake, Nuc. (OVCAR-3): 4.6 ng
- SA-HRP uptake, Cyt. (NCI-H226): 2.6 ng
- SA-HRP uptake, Nuc. (NCI-H226): 1.8 ng
- SA-HRP uptake, Cyt. (Lewis Lung): 8.6 ng
- SA-HRP uptake, Nuc. (Lewis Lung): 7.2 ng
- SA-HRP uptake, Cyt. (IGR-OV1): 7.0 ng
- SA-HRP uptake, Nuc. (IGR-OV1): 2.6 ng
- SA-HRP uptake, Cyt. (BT-549): 7.2 ng
- SA-HRP uptake, Nuc. (BT-549): 2.1 ng
- SA-HRP uptake, Cyt. (COLO 205): 2.9 ng
- SA-HRP uptake, Nuc. (COLO 205): 0.9 ng
- SA-HRP uptake, Cyt. (HCT-116): 14.1 ng
- SA-HRP uptake, Nuc. (HCT-116): 4.4 ng
- SA-HRP uptake, Cyt. (UO-31): 4.6 ng
- SA-HRP uptake, Nuc. (UO-31): 1.0 ng
- SA-HRP uptake, Cyt. (786-O): 2.9 ng
- SA-HRP uptake, Nuc. (786-O): 3.9 ng
- SA-HRP uptake, Cyt. (MX-1): 10.8 ng
- SA-HRP uptake, Nuc. (MX-1): 3.1 ng
- SA-HRP uptake, Cyt. (HS 913T): 3.4 ng
- SA-HRP uptake, Nuc. (HS 913T): 1.1 ng
- SA-HRP uptake, Cyt. (A498): 28.5 ng
- SA-HRP uptake, Nuc. (A498): 12.4 ng
- SA-HRP uptake, Cyt. (HCC 2998): 4.6 ng
- SA-HRP uptake, Nuc. (HCC 2998): 3.7 ng
- SA-HRP uptake, Cyt. (SK-0V-3): 2.0 ng
- SA-HRP uptake, Nuc. (SK-0V-3): 0.4 ng
- SA-HRP uptake, Cyt. (A549): 9.6 ng
- SA-HRP uptake, Nuc. (A549): 3.5 ng
- SA-HRP uptake, Cyt. (OVCAR-5): 2.7 ng
- SA-HRP uptake, Nuc. (OVCAR-5): 1.2 ng
- SA-HRP uptake, Cyt. (MCF 7): 26.7 ng
- SA-HRP uptake, Nuc. (MCF 7): 19.8 ng
- SA-HRP uptake, Cyt. (NCI-H23): 10.8 ng
- SA-HRP uptake, Nuc. (NCI-H23): 6.6 ng
- SA-HRP uptake, Cyt. (RPMI 8226): 6.5 ng
- SA-HRP uptake, Nuc. (RPMI 8226): 0.0 ng
- SA-HRP uptake, Cyt. (SW-620): 3.2 ng
- SA-HRP uptake, Nuc. (SW-620): 0.7 ng
- SA-HRP uptake, Cyt. (NHI-H322M): 5.2 ng
- SA-HRP uptake, Nuc. (NHI-H322M): 5.0 ng
